In US20250090540A1, “PI3K-ALPHA INHIBITORS AND METHODS OF USE THEREOF” (Relay Therapeutics, Inc., priority 2021, published 2025) one finds IC50 data, which are given here for 26 compounds.

One assay deals with H1047R PIK3CA enzyme (Homo sapiens, UniProt P42336, H1047R). Kind of assay: ADP-Glo Biochemical PIK3CA Kinase Assay.
Another assay is described as follows: cells. The note with it: Homo sapiens, MCF-10A, read-out: MCF10A I50.
Setting [1] is: ADP-Glo biochemical PIK3CA kinase assay.

Like-named read-outs stand apart in the source and are kept apart here.

H1047R PIK3CA enzyme, sequence (P42336 whole entry H1047R): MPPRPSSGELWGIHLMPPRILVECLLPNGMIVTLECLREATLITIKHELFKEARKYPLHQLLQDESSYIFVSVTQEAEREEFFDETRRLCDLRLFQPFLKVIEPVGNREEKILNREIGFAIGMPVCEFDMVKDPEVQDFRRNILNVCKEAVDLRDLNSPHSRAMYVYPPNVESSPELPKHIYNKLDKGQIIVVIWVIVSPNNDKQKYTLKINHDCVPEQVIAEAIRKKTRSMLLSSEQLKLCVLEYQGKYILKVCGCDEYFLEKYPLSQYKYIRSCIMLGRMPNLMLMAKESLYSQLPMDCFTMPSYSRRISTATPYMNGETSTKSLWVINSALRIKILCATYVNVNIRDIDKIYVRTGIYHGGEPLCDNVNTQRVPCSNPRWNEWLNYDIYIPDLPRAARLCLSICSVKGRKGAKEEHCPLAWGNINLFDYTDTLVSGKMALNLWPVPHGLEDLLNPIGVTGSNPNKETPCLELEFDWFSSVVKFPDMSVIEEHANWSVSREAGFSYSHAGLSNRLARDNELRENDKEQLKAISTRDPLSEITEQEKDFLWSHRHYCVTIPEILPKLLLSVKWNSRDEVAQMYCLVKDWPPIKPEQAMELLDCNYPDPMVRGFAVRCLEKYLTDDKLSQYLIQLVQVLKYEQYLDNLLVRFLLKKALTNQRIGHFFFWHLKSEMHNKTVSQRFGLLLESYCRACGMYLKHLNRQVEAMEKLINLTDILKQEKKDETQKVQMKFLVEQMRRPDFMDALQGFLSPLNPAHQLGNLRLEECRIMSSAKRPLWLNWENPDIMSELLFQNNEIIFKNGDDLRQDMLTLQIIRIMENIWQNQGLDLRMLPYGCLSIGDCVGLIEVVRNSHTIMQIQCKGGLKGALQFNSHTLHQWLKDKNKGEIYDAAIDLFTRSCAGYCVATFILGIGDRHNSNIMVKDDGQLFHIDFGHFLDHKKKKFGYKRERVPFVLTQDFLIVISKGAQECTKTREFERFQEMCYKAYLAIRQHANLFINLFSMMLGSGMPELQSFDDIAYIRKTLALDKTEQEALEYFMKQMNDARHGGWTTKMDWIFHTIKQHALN
H1047R PIK3CA enzyme, sequence (P27986 whole entry partner): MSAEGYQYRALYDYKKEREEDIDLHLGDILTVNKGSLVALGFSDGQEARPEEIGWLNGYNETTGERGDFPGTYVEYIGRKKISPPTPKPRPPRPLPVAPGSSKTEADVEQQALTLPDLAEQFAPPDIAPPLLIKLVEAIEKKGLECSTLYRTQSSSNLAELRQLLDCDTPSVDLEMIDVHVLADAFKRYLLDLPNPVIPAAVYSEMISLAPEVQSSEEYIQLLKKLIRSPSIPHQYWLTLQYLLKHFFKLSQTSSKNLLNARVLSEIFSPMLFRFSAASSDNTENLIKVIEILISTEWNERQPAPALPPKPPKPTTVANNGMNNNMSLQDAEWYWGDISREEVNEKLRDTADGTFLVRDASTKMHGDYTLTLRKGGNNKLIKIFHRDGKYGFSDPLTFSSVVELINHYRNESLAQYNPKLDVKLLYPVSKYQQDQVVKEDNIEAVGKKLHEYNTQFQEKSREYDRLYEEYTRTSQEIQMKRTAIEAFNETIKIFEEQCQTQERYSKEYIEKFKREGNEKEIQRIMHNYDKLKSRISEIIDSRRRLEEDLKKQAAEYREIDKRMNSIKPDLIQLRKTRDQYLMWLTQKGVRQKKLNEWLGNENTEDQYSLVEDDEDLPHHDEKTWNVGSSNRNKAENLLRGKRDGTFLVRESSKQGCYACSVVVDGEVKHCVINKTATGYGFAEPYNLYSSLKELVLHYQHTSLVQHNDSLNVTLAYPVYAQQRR

Take `Cc1ccccc1Nc1ncc(C(=O)N[C@H]2COc3ccccc3C2)cc1NC(=O)c1csc2ccccc12` [I-619]: the IC50 at H1047R PIK3CA enzyme (setting [1]) was in the range of 100 to 500 nM; in the assay “cells” it was 36000 to 100000 nM.

Consider `Cc1ccccc1Nc1ncc(C(=O)NCC2CCCOC2)cc1NC(=O)c1csc2ccccc12` (stereo not shown) [I-621], for which the IC50 on H1047R PIK3CA enzyme (setting [1]) lay in the range of 100 to 500 nM; in “cells”, 10000 to 36000 nM.

In the case of `Cc1ccccc1Nc1ncc(C(=O)N[C@H]2CCOC2)cc1NC(=O)c1csc2ccccc12` [I-622], the IC50 against H1047R PIK3CA enzyme (setting [1]) lay within 100 to 500 nM; in “cells”, 1000 to 5000 nM.

In the case of `Cc1ccccc1Nc1ncc(C(=O)Nc2cnn(C)c2)cc1NC(=O)c1csc2ccccc12` [I-624], the IC50 on H1047R PIK3CA enzyme (setting [1]) is 100 to 500 nM; in “cells”, below 1000 nM.

In the case of `Cc1ccn2c(CNC(=O)c3cnc(Nc4ccccc4C)c(NC(=O)c4csc5ccccc45)c3)nnc2c1` [I-625], the IC50 at H1047R PIK3CA enzyme (setting [1]) is 100 to 500 nM; in “cells”, 10000 to 36000 nM.

For `Cc1ccccc1Nc1ncc(C(=O)N[C@@H]2CC[C@@H](O)C2)cc1NC(=O)c1csc2ccccc12` [I-626], the IC50 against H1047R PIK3CA enzyme (setting [1]) was 100 to 500 nM; in “cells”, 1000 to 5000 nM.

Turning to `Cc1ccccc1Nc1ncc(C(=O)N2CCn3nccc32)cc1NC(=O)c1csc2ccccc12` [I-627], the IC50 lay within 1000 to 10000 nM against H1047R PIK3CA enzyme (setting [1]) and 10000 to 36000 nM in the assay “cells”.

On to `Cc1ccccc1Nc1cccnc1NC(=O)c1csc2ccccc12` [I-635], for which the IC50 fell in the range of 100 to 500 nM against H1047R PIK3CA enzyme (setting [1]) and 36000 to 100000 nM in the assay “cells”.

For the compound `CNC(=O)c1cnc(Nc2ccccc2C)c(NC(=O)Cc2cnc3ccccn23)c1` [I-652], the IC50 against H1047R PIK3CA enzyme (setting [1]) is 100 to 500 nM; in the assay “cells”, 10000 to 36000 nM.

Take `CNC(=O)c1cnc(N)c(NC(=O)c2csc3ccccc23)c1` [I-676]: the IC50 is 500 to 1000 nM against H1047R PIK3CA enzyme (setting [1]) and 10000 to 36000 nM in “cells”.

For the compound `CNC(=O)c1cnc(Nc2ccccc2C)c(NC(=O)c2cc(F)c(F)c(C(F)(F)F)c2)c1` [I-677], the IC50 was in the range of 1000 to 10000 nM against H1047R PIK3CA enzyme (setting [1]) and 10000 to 36000 nM in “cells”.

As to `CNC(=O)c1cnc(Nc2cccc3ccn(C)c23)c(NC(=O)c2csc3ccccc23)c1` [I-680], the IC50 at H1047R PIK3CA enzyme (setting [1]) was in the range of 1000 to 10000 nM; in “cells”, 10000 to 36000 nM.

For `Cc1ccccc1Nc1ncc(C(=O)N[C@H]2C[C@H](C(=O)O)C2)cc1NC(=O)c1csc2ccccc12` [I-685], the IC50 fell in the range of 500 to 1000 nM on H1047R PIK3CA enzyme (setting [1]) and 10000 to 36000 nM in the assay “cells”.

With `CC(NC(=O)c1cnc(N)c(NC(=O)c2csc3ccccc23)c1)c1nnc2ccccn12` (stereo not shown) [I-691], the results for the IC50 at H1047R PIK3CA enzyme (setting [1]) and in “cells” were 100 to 500 nM and 5000 to 10000 nM, respectively.

In the case of `CNC(=O)[C@H]1C[C@@H](NC(=O)c2cnc(Nc3ccccc3C)c(NC(=O)c3csc4ccccc34)c2)C1` [I-692], the IC50 on H1047R PIK3CA enzyme (setting [1]) fell in the range of 100 to 500 nM; in the assay “cells”, 10000 to 36000 nM.

For `Cc1ccccc1Nc1ncc(C(=O)NCc2cccnc2)cc1NC(=O)c1cc(F)cc(C(F)(F)F)c1` [I-700], the IC50 lay in the range of 100 to 500 nM at H1047R PIK3CA enzyme (setting [1]) and 10000 to 36000 nM in “cells”.

Regarding `CNC(=O)c1cnc(NC2CCOc3ccc(F)cc32)c(NC(=O)c2csc3ccccc23)c1` (stereo not shown) [I-745], the IC50 lay in the range of 100 to 500 nM against H1047R PIK3CA enzyme (setting [1]) and 5000 to 10000 nM in the assay “cells”.

For the compound `Cc1ccccc1Nc1ncc(C(=O)NCC2(C#N)CC2)cc1NC(=O)c1cc(F)cc(C(F)(F)F)c1` [I-750], the results for the IC50 on H1047R PIK3CA enzyme (setting [1]) and in the assay “cells” were 100 to 500 nM and 5000 to 10000 nM, respectively.

Consider `CNC(=O)c1cnc(Nc2ccccc2C)c(NC(=O)c2cc(C)nc(C(F)(F)F)c2)c1` [I-765], for which the IC50 lay within 100 to 500 nM at H1047R PIK3CA enzyme (setting [1]) and 1000 to 5000 nM in the assay “cells”.

For the compound `CNC(=O)c1cnc(Nn2nccc2C(F)(F)F)c(NC(=O)c2csc3ccccc23)c1` [I-772], the IC50 was at most 100 nM at H1047R PIK3CA enzyme (setting [1]) and 1000 to 5000 nM in the assay “cells”.

`CNC(=O)c1cc(F)c(Nc2ccccc2C)c(NC(=O)c2csc3ccccc23)c1` [I-773]: the IC50 against H1047R PIK3CA enzyme (setting [1]) was at most 100 nM; in the assay “cells”, below 1000 nM.

Take `Cc1ccccc1Nc1c(F)cc(C(=O)NC2CS(=O)(=O)C2)cc1NC(=O)c1csc2ccccc12` [I-774]: the IC50 against H1047R PIK3CA enzyme (setting [1]) was at most 100 nM; in the assay “cells” it was 10000 to 36000 nM.

Consider `CC(C)(O)c1cnc(Nc2cc(F)ccc2Cl)c(NC(=O)c2nsc3ccccc23)c1` [I-783], for which the IC50 on H1047R PIK3CA enzyme (setting [1]) was in the range of 100 to 500 nM; in “cells”, 5000 to 10000 nM.

For the compound `CNC(=O)c1ccc(Nc2cc(F)ccc2Cl)c(NC(=O)c2cc(F)cc(C(F)(F)F)c2)n1` [I-802], the values for the IC50 on H1047R PIK3CA enzyme and in “cells” were 100 to 500 nM and 1000 to 5000 nM, respectively.

Take `CNC(=O)c1cnc(Nc2cc(CO)ccc2Cl)c(NC(=O)c2cc(F)cc(C(F)(F)F)c2)c1` [I-809]: the IC50 against H1047R PIK3CA enzyme was 100 to 500 nM; in “cells” it was 1000 to 5000 nM.

With `Cc1ccccc1Nc1nc2ccccc2cc1NC(=O)N1CC(O)c2ccccc21` (stereo not shown) [I-828, 3-hydroxy-N-(2-(o-tolylamino)quinolin-3-yl)indoline-1-carboxamide], the IC50 on H1047R PIK3CA enzyme was in the range of 500 to 1000 nM; in “cells”, 5000 to 10000 nM.
